# Patent US20210165001A1, “COMPOSITIONS AND METHODS FOR DETECTION AND IMAGING OF AMYLOID FIBRILS, AMYLOID PLAQUES, RNA, AND NUCLEOLI” (The University of Hong Kong, priority 2018, published 2021)
# What was measured:
# Assay type in all cases: biochemical
# [1] = biological target: T1, insulin amyloid fibrillation (Homo sapiens, UniProt P01308); test: effect of L-ascorbic acid on insulin amyloid fibrillation, complex 1-Pt luminescence assay; conditions: for kapp of insulin amyloid fibrillation / tlag of insulin amyloid fibrillation: detected by complex 1-Pt
# Description: (§1) In kinetics, insulin amyloid fibrillation can be modeled by a sigmoid function with three different phases: lag phase, log phase, and stationary phase. The values of kapp and tlag for insulin amyloid fibrillation were determined using the sigmoid function which was based on the equation shown below (see similar examples of data fitting in Nielsen et al., Biochemistry, 40:6036-6046 (2001); Hwang et al., J. Biol. Chem., 285:41701-41711 (2010); and Donabedian et al., ACS Chem. Neurosci., 6:1526-1535 (2015)).
# (§2) where y is the absorbance, emission intensity, or RLS intensity; A1 is the absorbance, emission intensity, or RLS intensity before amyloid fibrillation; A2 is the absorbance, emission intensity, or RLS intensity after amyloid fibrillation; x is the incubation time; xo is the incubation time at which the absorbance, emission intensity, or RLS intensity is at half maximum; and dx is the time constant. Accordingly, the apparent rate constant, kapp, is equivalent to 1/dx, and the lag time, tlag, is given by xo−2dx.
# (§3) Insulin was dissolved at 1.0 mg mL^−1 in an acidic buffer ([NaCl]=137 mM, [KCl]=2.7 mM, pH=2.0) in the presence of different amounts (0, 10, 20, 50, 70, 100 mM) of L-ascorbic acid. The solution was incubated at 65° C. and stirred at 300 rpm. Aliquots were withdrawn at a desired time interval. Insulin samples (10 μM) with different incubation times were added to a solution of thioflavin T (10 μM) in a PBS buffer (10.0 mM, pH=7.4). The emission spectra were recorded at 25° C. at an excitation wavelength of 440 nm. Similarly, insulin samples (10 μM) with different incubation times were added to a solution of complex 1-Pt (50 μM) in a PBS buffer (10.0 mM, pH=7.4, 10% DMSO). The emission spectra were recorded at 25° C. at an excitation wavelength of 400 nm. The values of kapp and tlag for insulin amyloid fibrillation were determined from fitting using the sigmoid equation listed above.
# [2] = biological target: T1, insulin amyloid fibrillation; test: effect of L-ascorbic acid on insulin amyloid fibrillation, thioflavin T fluorescence assay; conditions: detected by thioflavin T
# Description: as §1, §2, §3
# [3] = biological target: T1, insulin amyloid fibrillation; test: kinetics of insulin amyloid fibrillation reported by probe (sigmoid fit); conditions: method: Emission; insulin 10 μM; thioflavin T 10 μM (490 nm) or complex 1-Pt 50 μM (650 nm); no L-ascorbic acid
# Description: To induce amyloid fibrillation, insulin was dissolved at 1.0 mg mL^−1 in an acidic buffer ([NaCl]=137 mM, [KCl]=2.7 mM, pH=2.0). The solution was incubated at 65° C. and stirred at 300 rpm. Insulin samples with different incubation times were added to a solution of thioflavin T in a PBS buffer (10.0 mM, pH=7.4). The final concentrations of insulin and thioflavin T were both 10 μM. The emission spectra were recorded at 25° C. at an excitation wavelength of 440 nm. Similarly, insulin samples with different incubation times were added to a solution of complex 1-Pt in a PBS buffer (10.0 mM, pH=7.4, 10% DMSO). The final concentrations of insulin and complex 1-Pt were 10 μM and 50 μM, respectively. UV-Vis absorption spectra, emission spectra, and RLS spectra were recorded at 25° C.; the emission spectra were recorded at an excitation wavelength of 400 nm.
# as §1, with “(2015)). […]” for “(2015)).”
# T1 sequence (P01308 25-54 limits assumed): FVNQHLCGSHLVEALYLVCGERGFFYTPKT
# T1 sequence (P01308 90-110 limits assumed): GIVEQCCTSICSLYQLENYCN
kapp of insulin amyloid fibrillation ([2]; L-ascorbic acid 10 mM),tlag of insulin amyloid fibrillation ([2]; L-ascorbic acid 10 mM),kapp of insulin amyloid fibrillation ([2]; L-ascorbic acid 20 mM),tlag of insulin amyloid fibrillation ([2]; L-ascorbic acid 20 mM),kapp of insulin amyloid fibrillation ([2]; L-ascorbic acid 50 mM),tlag of insulin amyloid fibrillation ([2]; L-ascorbic acid 50 mM),kapp of insulin amyloid fibrillation ([2]; L-ascorbic acid 70 mM),tlag of insulin amyloid fibrillation ([2]; L-ascorbic acid 70 mM),SMILES,"inhibition effect on amyloid fibrillation ([1]; L-ascorbic acid 0-100 mM, thioflavin T and complex 1-Pt assays)",kapp of insulin amyloid fibrillation ([1]; L-ascorbic acid 10 mM),tlag of insulin amyloid fibrillation ([1]; L-ascorbic acid 10 mM),kapp of insulin amyloid fibrillation ([1]; L-ascorbic acid 20 mM),tlag of insulin amyloid fibrillation ([1]; L-ascorbic acid 20 mM),kapp of insulin amyloid fibrillation ([1]; L-ascorbic acid 50 mM),tlag of insulin amyloid fibrillation ([1]; L-ascorbic acid 50 mM),kapp of insulin amyloid fibrillation ([1]; L-ascorbic acid 70 mM),tlag of insulin amyloid fibrillation ([1]; L-ascorbic acid 70 mM),kapp (apparent rate constant of insulin amyloid fibrillation) [3],tlag (lag time of insulin amyloid fibrillation) [3]
0.19 ± 0.09 min⁻¹,54.3 ± 0.2 min,0.17 ± 0.08 min⁻¹,57.2 ± 0.3 min,0.17 ± 0.08 min⁻¹,68.3 ± 0.3 min,0.14 ± 0.07 min⁻¹,83.0 ± 0.3 min,O=C1O[C@H]([C@@H](O)CO)C(O)=C1O [L-ascorbic acid],concentration dependent,0.18 ± 0.09 min⁻¹,53.2 ± 0.2 min,0.16 ± 0.08 min⁻¹,59.2 ± 0.3 min,0.15 ± 0.07 min⁻¹,70.1 ± 0.6 min,0.12 ± 0.06 min⁻¹,85.6 ± 0.6 min,–,–
–,–,–,–,–,–,–,–,"Cc1ccc2c(c1)sc(-c1ccc(N(C)C)cc1)[n+]2C.[Cl-] [Thioflavin T, thioflavin T]",–,–,–,–,–,–,–,–,–,0.23 ± 0.08 min⁻¹,54.0 ± 0.1 min
